Measured values as given in patent US6420372B1, “Febrifugine, isofebrifugine and method for producing the same” (Japan Science and Technology Corporation, priority 1999, dated 2002).
Read-outs that look alike come from different tables or passages of the source.

Tests used:
[1] = test system: P. falciparum FCR-3 strain (ATCC 30932); test: Screening of malarial protozoan growth inhibition (culture assay); format: cell-based; details: for EC50: Plasmodium falciparum, Erythrocyte, read-out: P. falciparum EC50; for Ratio of Selective Toxicity for Malarial Protozoan <chemotherapeutic coefficient>: [EC50 for mouse FM3A cell]/[EC50 for tropical fever malarial protozoan]; for malarial protozoan growth inhibiting activity (in words): summary of Table 1
Method: In this experiment, P. falciparum FCR-3 strain (ATCC 30932) was employed as the tropical fever malarial protozoan. In order to verify the effect of the commercially available anti-malarial agent chloroquin on resistant strains, a chloroquin resistant malarial protozoan of the P. falciparum K1 strain was employed. The medium used in this experiment was a filter-sterilized RPMI1640 medium which was adjusted to pH 7.4 and supplemented with 10% human serum. The malarial protozoan was cultured under 5% O2, 4% CO2 and […] at 36.5° C. The hematocrit level (% volume of erythrocyte in erythrocyte suspension) was adjusted to 5% for use. The initial infection rate with the tropical fever malarial protozoan at the beginning of the cultivation was 0.1%. The cultivation was performed using a 24-well cultivation plate, replacing the culture medium everyday, and subcultured at an infection rate of 4%. The infection rate was obtained by making a thin layer smear preparation, which was subjected to Giemsa staining or Diff-Qick staining, and observed microscopically (immersed in oil, magnified to ×1000) after which the malarial protozoan infection rate was determined using the following equation.
Malarial protozoan infection rate=[(number of infected erythrocyte)/(total number of erythrocyte)]×100 The cultured malarial protozoan-infected erythrocyte was collected by centrifugation, and washed with a serum-supplemented medium, after which a non-infected erythrocyte was added to adjust the initial infection rate to 0.3%. At this time, the hematocrit rate was 3%. The sample used in the test was obtained by dissolving in sterilized water, dimethylformamide (DMF), or dimethylsulfoxide (DMSO) to create samples of desired concentration.
5 to 10 μl of the sample were added to a 24-well cultivation plate. The samples were tested in duplicates or triplicates. As a control, 10 μl/well of sterilized water, DMF or DMSO was employed.
Subsequently, to the above medium, 990 to 995 μl of the tropical fever malarial protozoan culture medium previously prepared were added by gentle pipetting to create a uniform suspension. The culture plate was incubated for 72 hours in a CO2—O2—N2 (5%, 5%, 90%) incubator, after which thin layer smear preparations of each well was made, stained, and observed microscopically, to determine the infection rate together with the infection rate for the control.
From the malarial protozoan infection rate obtained by the method described above, the reproductive rate was calculated, whereby obtaining the 50% growth inhibition concentration (EC50) for malarial protozoan.
Reproductive rate={([b]−[a])/([c]−[a])}×100 a: initial infection rate b: infection rate with sample added c: infection rate without sample (Control)

[2] = test system: mouse breast cancer FM3A cells (F28-7 strain); test: Mouse FM3A cell growth inhibition test; format: cell-based; details: read-out: FM3A EC50
Method: An F28-7 strain, a wild cell strain derived from mouse breast cancer FM3A cells was employed. A medium was prepared by supplementing an ES medium with 2% inactivated fetal calf serum, and incubated at 37° C. under 5% CO2. Under these conditions, the doubling time of the FM3A cell was about 12 hours.
Following preincubation, the cells in logarithmic growth phase were diluted with the medium to 5×10^4 cells/ml. The sample used was one prepared for the anti-malarial activity test of the malaria protozoan. 5 to 10 μl of the samples were added to a 24-well cultivation plate (final concentration after addition of medium was 1×10^−4 to 1×10^−6). The compounds were tested in duplicates or triplicates, and wells containing 10 μl of sterilized water, DMF or DMSO were also prepared as a control. Subsequently, 990 to 995 μl of the cultured cell suspension previously prepared were added by gentle pipetting, and uniformly suspended in the medium. After incubating for 48 hours, the number of cells in each well was counted using SELF CONTROLLER (CC-108, Toa Medical Electrics) and the reproductive rate was calculated by using the following equation.
Reproductive rate (%)={([C]−[A])/([B]−[A])}×100
A: initial number of cells
B: number of control cell after 48 hours
C: number of cells after 48 hours from sample addition
The cell growth inhibition activity was calculated from the number of cells in the well containing the sample and the number of cells in the control. From the results thus obtained, the cytotoxicity of each sample was evaluated and represented as the cell growth inhibition concentration (EC50). The EC50 value is the concentration (expressed as molar concentration) of a sample necessary to inhibit the reproductive rate of the control by 50%, wherein the reproductive rate or the rate of malarial protozoan infection for the control in which samples are not added to the medium of malarial protozoan or FM3A cell, is regarded as 100%.

Structure (SMILES) | EC50 ([1]; 72 h) | Ratio of Selective Toxicity for Malarial Protozoan <chemotherapeutic coefficient> [1] | malarial protozoan growth inhibiting activity (in words) [1] | EC50 ([2]; 48 h) | EC50 ([1]; 50% growth inhibition concentration, infected erythrocytes, 72 hours incubation, infection rate by stained smear) | EC50 ([2]; cell growth inhibition concentration (cytotoxicity), 48 hours incubation, cell count)
O=C(C[C@H]1NCCC[C@@H]1O)Cn1cnc2ccccc2c1=O [A, (2′R, 3′S)-febrifugine] | 0.3 nM | 2667 | selective malarial protozoan growth inhibiting activity | 800 nM | – | –
O=c1c2ccccc2ncn1CC1(O)C[C@@H]2NCCC[C@@H]2O1 (stereo partly drawn) [B, (2′S, 3′S)-isofebrifugine] | – | 2895 | selective malarial protozoan growth inhibiting activity | – | 0.076 nM | 220 nM
O=C(C[C@@H]1NCCC[C@H]1O)Cn1cnc2ccccc2c1=O [Formula A0, reference compound] | 190 nM | 105 | – | 20000 nM | – | –
O=c1c2ccccc2ncn1CC1(O)C[C@@H]2NCCC[C@H]2O1 (some centres unmarked) [Formula B0, reference compound] | 200 nM | 110 | – | 22000 nM | – | –
